The source made the active and inactive calls.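 How the source made its calls: active means compounds whose fitted IC50 falls under 25000 nM; inactive means the rest.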
Biological target: Serine/threonine-protein phosphatase 5 (Homo sapiens) (UniProt P53041)
Assay: PP5c phosphatase inhibition potency – biochemical, fluorescence, round 5, 3.8 nM low dose, dose response (AID 624433)
Settings: purified PP5c, OMFP dephosphorylation

Serine/threonine-protein phosphatase 5 (Homo sapiens), sequence (P53041 whole entry, looked up): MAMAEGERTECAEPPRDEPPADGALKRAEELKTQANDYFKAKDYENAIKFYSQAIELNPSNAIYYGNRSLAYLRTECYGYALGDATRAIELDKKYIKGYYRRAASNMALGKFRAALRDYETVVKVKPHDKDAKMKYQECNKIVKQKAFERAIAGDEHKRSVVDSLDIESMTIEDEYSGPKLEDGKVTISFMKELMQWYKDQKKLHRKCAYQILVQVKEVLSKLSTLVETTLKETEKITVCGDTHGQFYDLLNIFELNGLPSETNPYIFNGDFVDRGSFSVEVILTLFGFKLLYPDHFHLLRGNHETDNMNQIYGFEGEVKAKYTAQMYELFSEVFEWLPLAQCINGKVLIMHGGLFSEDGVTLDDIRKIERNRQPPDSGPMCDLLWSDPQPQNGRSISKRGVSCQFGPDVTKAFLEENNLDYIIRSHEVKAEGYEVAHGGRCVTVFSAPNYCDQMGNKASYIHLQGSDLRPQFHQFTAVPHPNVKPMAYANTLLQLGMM

Structure (SMILES) | IC50
CC(C)c1ccccc1-c1n[nH]nc1C(=O)O | inactive
CCOc1ccccc1-c1n[nH]nc1C(=O)O | 3.62 µM
CCc1ccccc1-c1n[nH]nc1C(=O)O | 19.9 µM
CC(C)Oc1ccccc1-c1n[nH]nc1C(=O)O | 2.86 µM
O=C(O)c1n[nH]nc1-c1ccccc1-c1ccccc1 | inactive
O=C(O)c1n[nH]nc1-c1ccccn1 | inactive
Cc1ccccc1-c1n[nH]nc1C(=O)O | 16.1 µM
